Reference: PubChem BioAssay AID1963863 (Molecular Pharmacology Branch, DTP, NCI, 2024)

System: 931267-113-T-J1-PDC KRAS spheroid with HUVEC/MSC, viability
Experiment: Anticancer human tumor 931267-113-T-J1-PDC patient-derived colon adenocarcinoma cell line growth inhibition [KRAS2]
Settings: for IC50: curve of first compound; for viability, T/C: stronger effect = lower value
Description: Multicellular complex tumor spheroid response to RAS pathway inhibitors in combination with a targeted agents in patient-derived cell lines with oncogenic KRAS variants from multiple cancer types
A high-throughput screen of multi-cell type tumor spheroids was designed to identify active combinations of targeted small molecules and KRAS pathway inhibitors. Complex spheroids include a stromal component modeled by human endothelial cells (HUVEC) and fibroblasts modeled by human mesenchymal stem cells (MSCs). The concentration ranges selected for each drug and investigational agent were based upon clinically achievable concentrations if the clinical Cmax of the agent was known.
Compounds. The drugs and investigational agents: BI-3406 (NSC825286), BAY-293 (NSC824723), batoprotafib (TNO155; NSC825523), sotorasib (AMG 510; NSC818433), MRTX1257 (NSC819558), elimusertib (BAY 1895344; NSC800525), molibresib (GSK525762; NSC774829), temuterkib (LY3214996; NSC803410), venetoclax (NSC766270), alisertib (NSC759677), olaparib (NSC753686), talazoparib (NSC767125), erdafitinib (NSC781556), ipatasertib (NSC767898), cabozantinib (NSC761068), nintedanib (NSC756659), abemaciclib (NSC768073), docetaxel (NSC628503), trametinib (NSC758246), and sapanisertib (NSC764658) were obtained from the National Cancer Institute (NCI) Developmental Therapeutics Program Chemical Repository. The FDA-approved anticancer drug set is available from the Developmental Therapeutics Program. […] The stock solutions were prepared in dimethyl sulfoxide (DMSO, Sigma-Aldrich, St. Louis, MO, cat. D2650) at 800-fold the tested concentration and stored at -70 degrees C prior to their use. All drugs and investigational agents were tested over a range starting from a high concentration at or near the clinical Cmax and decreasing in half-log increments. If the clinical Cmax for an agent had not been determined, the highest concentration tested was 10 microM.
Cell Culture. All cells were maintained in an incubator at 37 degrees C and 5% CO2 with 95% humidity. The PDC lines were cultured according to standard operating procedures established by the NCI PDMR (https://pdmr.cancer.gov/sops/default.htm). Briefly, all PDCs were thawed and cultured in Matrigel-coated flasks prepared with a working solution of 1X Ham's F-12 nutrient mix, without supplementation (Invitrogen, Waltham, MA, cat. 11765054), 100 U/mL penicillin-streptomycin (Invitrogen, cat. 15140122), and 2.5% Matrigel (Corning Inc., Corning, NY, cat. 354248) for the first three passages. All PDCs were cultured in complete DMEM/F-12 media containing advanced DMEM/F-12 (Invitrogen, cat. 12634028), 4.9% defined fetal bovine serum, heat inactivated (HyClone Laboratories Inc., Logan, UT, cat. SH30070.03HI), 389 ng/mL hydrocortisone (Sigma-Aldrich, cat. H4001), 9.7 ng/mL human EGF recombinant protein (Invitrogen, cat. PHG0313), 23.4 microg/mL adenine (Sigma-Aldrich, cat. A2786), 97.3 U/mL penicillin-streptomycin (Invitrogen, cat. 15140122), 1.9 mM L-glutamine (Invitrogen, cat. 25030081), and 9.7 microM Y-27632 dihydrochloride (Tocris Bioscience, Bristol, United Kingdom, cat. 1254). The PDCs were cultured in complete DMEM/F12 media without 9.7 microM Y-27632 dihydrochloride for at least two passages prior to the screen. The established cell line HOP-62 was cultured in RPMI 1640 medium, HEPES (Invitrogen, cat. 22400105) with 10% defined fetal bovine serum (HyClone Laboratories Inc., cat. SH30070.03) and 2 mM L-glutamine (Invitrogen, cat. 25030081). The pooled donor HUVEC were cultured in endothelial cell growth medium 2 (PromoCell, Heidelberg, Germany, cat. C-22011) and the hMSC were cultured in mesenchymal stem cell growth medium 2 (PromoCell, cat. C-28009). For all experiments, HUVEC and hMSC were used at passages </=5, while the malignant cell lines were used at passages </=15. […]

[1] = second compound 0.1 µM, first compound 0.01 µM
[2] = second compound 0.1 µM, first compound 0.0316 µM
[3] = second compound 0.1 µM, first compound 0.1 µM
[4] = second compound 0.1 µM, first compound 0.316 µM
[5] = second compound 0.1 µM, first compound 1 µM
[6] = second compound 0.1 µM, first compound 3.16 µM
[7] = second compound 0.316 µM, first compound 0.01 µM
[8] = second compound 0.316 µM, first compound 0.0316 µM
[9] = second compound 0.316 µM, first compound 0.1 µM
[10] = second compound 0.316 µM, first compound 0.316 µM
[11] = second compound 0.316 µM, first compound 1 µM
[12] = second compound 0.316 µM, first compound 3.16 µM
[13] = second compound 1 µM, first compound 0.01 µM
[14] = second compound 1 µM, first compound 0.0316 µM
[15] = second compound 1 µM, first compound 0.1 µM
[16] = second compound 1 µM, first compound 0.316 µM
[17] = second compound 1 µM, first compound 1 µM
[18] = second compound 1 µM, first compound 3.16 µM
[19] = second compound 3.16 µM, first compound 0.01 µM
[20] = second compound 3.16 µM, first compound 0.0316 µM
[21] = second compound 3.16 µM, first compound 0.1 µM
[22] = second compound 3.16 µM, first compound 0.316 µM
[23] = second compound 3.16 µM, first compound 1 µM
[24] = second compound 3.16 µM, first compound 3.16 µM
[25] = second compound 10 µM, first compound 0.01 µM
[26] = second compound 10 µM, first compound 0.0316 µM
[27] = second compound 10 µM, first compound 0.1 µM
[28] = second compound 10 µM, first compound 0.316 µM
[29] = second compound 10 µM, first compound 1 µM
[30] = second compound 10 µM, first compound 3.16 µM
[31] = second compound 0.1 µM, first compound 10 µM
[32] = second compound 0.316 µM, first compound 10 µM
[33] = second compound 1 µM, first compound 10 µM
[34] = second compound 3.16 µM, first compound 10 µM
[35] = second compound 10 µM, first compound 10 µM
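Further: compound exposure lasted 7 days before the readout.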
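Wherever viability, T/C is given: 100% = DMSO vehicle control viability.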

SMILES | IC50 (second compound 0.1 µM) | IC50 (second compound 0.316 µM) | IC50 (second compound 1 µM) | IC50 (second compound 3.16 µM) | IC50 (second compound 10 µM) | viability, T/C [2] | viability, T/C [3] | viability, T/C [4] | viability, T/C [5] | viability, T/C [6] | viability, T/C [8] | viability, T/C [9] | viability, T/C [10] | viability, T/C [11] | viability, T/C [14] | viability, T/C [15] | viability, T/C [20] | viability, T/C [21] | viability, T/C [26] | viability, T/C [27] | also measured
CC(=O)OC12COC1CC(O)C1(C)C(=O)C(O)C3=C(C)C(OC(=O)C(O)C(NC(=O)OC(C)(C)C)c4ccccc4)CC(O)(C(OC(=O)c4ccccc4)C21)C3(C)C (stereo not given) + C=CC(=O)N1CCN(c2nc(=O)n(-c3c(C)ccnc3C(C)C)c3nc(-c4c(O)cccc4F)c(F)cc23)C(C)C1 | > 3.16 µM | > 3.16 µM | > 3.16 µM | > 3.16 µM | > 3.16 µM | 96.3% | 83.3% | 82.9% | 84.2% | 102% | 116% | 110% | 77.6% | 110% | 106% | 103% | 93.9% | 91.1% | 116% | 98.7% | viability, T/C [1]: 93.1%; viability, T/C [7]: 94.4%; viability, T/C [12]: 119%; viability, T/C [13]: 102%; viability, T/C [16]: 81%; viability, T/C [17]: 117%; viability, T/C [18]: 90.6%; viability, T/C [19]: 103%; viability, T/C [22]: 96.8%; viability, T/C [23]: 99.6%; viability, T/C [24]: 113%; viability, T/C [25]: 87.1%; viability, T/C [28]: 110%; viability, T/C [29]: 116%; viability, T/C [30]: 113%
CN(C)C/C=C/C(=O)Nc1cc2c(Nc3ccc(F)c(Cl)c3)ncnc2cc1O[C@H]1CCOC1 + C=CC(=O)N1CCN(c2nc(=O)n(-c3c(C)ccnc3C(C)C)c3nc(-c4c(O)cccc4F)c(F)cc23)C(C)C1 | > 0.1 µM | > 0.1 µM | > 0.1 µM | > 0.1 µM | > 0.1 µM | 115% | 117% |  |  |  | 117% | 98.6% |  |  | 84.9% | 96.5% | 126% | 105% | 110% | 108% | viability, T/C (second compound 0.1 µM, first compound 0.000316 µM): 103%; viability, T/C (second compound 0.1 µM, first compound 0.001 µM): 91.6%; viability, T/C (second compound 0.1 µM, first compound 0.00316 µM): 76.1%; viability, T/C [1]: 83.5%; viability, T/C (second compound 0.316 µM, first compound 0.000316 µM): 97.5%; viability, T/C (second compound 0.316 µM, first compound 0.001 µM): 105%; viability, T/C (second compound 0.316 µM, first compound 0.00316 µM): 95.1%; viability, T/C [7]: 96.1%; viability, T/C (second compound 1 µM, first compound 0.000316 µM): 110%; viability, T/C (second compound 1 µM, first compound 0.001 µM): 121%; viability, T/C (second compound 1 µM, first compound 0.00316 µM): 83.7%; viability, T/C [13]: 90.8%; viability, T/C (second compound 3.16 µM, first compound 0.000316 µM): 138%; viability, T/C (second compound 3.16 µM, first compound 0.001 µM): 128%; viability, T/C (second compound 3.16 µM, first compound 0.00316 µM): 117%; viability, T/C [19]: 95%; viability, T/C (second compound 10 µM, first compound 0.000316 µM): 146%; viability, T/C (second compound 10 µM, first compound 0.001 µM): 138%; viability, T/C (second compound 10 µM, first compound 0.00316 µM): 119%; viability, T/C [25]: 99.2%
COC(=O)c1ccc2c(C(=Nc3ccc(N(C)C(=O)CN4CCN(C)CC4)cc3)c3ccccc3)c(O)[nH]c2c1 + C=CC(=O)N1CCN(c2nc(=O)n(-c3c(C)ccnc3C(C)C)c3nc(-c4c(O)cccc4F)c(F)cc23)C(C)C1 | 1.34 µM | 1.08 µM | 1.05 µM | 0.922 µM | 0.984 µM | 107% | 100% | 90.5% | 67% | 0.52% | 120% | 103% | 84.8% | 63.4% | 129% | 116% | 121% | 134% | 119% | 103% | viability, T/C [31]: 0.48%; viability, T/C [12]: 0.81%; viability, T/C [32]: 0.29%; viability, T/C [16]: 82.8%; viability, T/C [17]: 65.8%; viability, T/C [18]: 0.56%; viability, T/C [33]: 0.21%; viability, T/C [22]: 82.8%; viability, T/C [23]: 56.4%; viability, T/C [24]: 0.33%; viability, T/C [34]: 0.22%; viability, T/C [28]: 103%; viability, T/C [29]: 50%; viability, T/C [30]: 0.49%; viability, T/C [35]: 0.31%
O=C(c1cc(Cc2n[nH]c(=O)c3ccccc23)ccc1F)N1CCN(C(=O)C2CC2)CC1 + C=CC(=O)N1CCN(c2nc(=O)n(-c3c(C)ccnc3C(C)C)c3nc(-c4c(O)cccc4F)c(F)cc23)C(C)C1 | > 10 µM | > 10 µM | > 10 µM | > 10 µM | > 10 µM | 94.3% | 87% | 82.3% | 97.7% | 101% | 110% | 108% | 81.9% | 83.6% | 88% | 103% | 105% | 115% | 89.2% | 102% | viability, T/C [31]: 85.1%; viability, T/C [12]: 93.9%; viability, T/C [32]: 97.3%; viability, T/C [16]: 113%; viability, T/C [17]: 100%; viability, T/C [18]: 88.2%; viability, T/C [33]: 92.2%; viability, T/C [22]: 110%; viability, T/C [23]: 89.9%; viability, T/C [24]: 107%; viability, T/C [34]: 112%; viability, T/C [28]: 113%; viability, T/C [29]: 111%; viability, T/C [30]: 102%; viability, T/C [35]: 99.6%
